We go through 32 compounds from patent US12486264B2, “Bicyclic HPK1 inhibitors” (Janssen Pharmaceutica NV, priority 2019, dated 2025).

One assay deals with T1, full-length human Hpk1 (Homo sapiens, UniProt Q92918).
T1 construct: full-length human Hpk1 with an N-terminal Glutatione S-transferase (GST) tag; GST (N); made in house; host or cells: baculovirus/insect cell expression system
The assay can be described thus: HPK1 kinase assay (ADP Glo). The settings on record: GST-Hpk1, 75 μM ATP solution added, ADP Glo luminescence; for IC50: read-out: Hpk1 biochemical (pIC50) (converted). It is filed as biochemical. The method, then: A recombinant fusion protein consisting of full-length human Hpk1 with an N-terminal Glutatione S-transferase (GST) tag was produced in a baculovirus/insect cell expression system. GST-Hpk1 protein was purified from cell lysates by glutathione sepharose affinity chromatography. Kinase inhibition was determined using the ADP Glo™ Kinase Assay kit (Promega, V9101). Test compounds were prepared by serial dilution in dimethyl sulfoxide (DMSO) and 0.1 μl of each dilution was spotted onto a 384-well white Proxiplate (Perkin Elmer, 6008289). 8 μl of kinase assay buffer (40 mM Tris pH 7.5, 2 mM dithiothreitol (DTT), 0.05% Bovine Serum Albumin, 5 mM MgCl2) containing Hpk1 protein was transferred to each well and incubated for 30-45 minutes at room temperature. The enzymatic reaction was started by adding 2 μl of kinase assay buffer containing 75 μM ATP. After 120 minutes, the reaction was stopped by adding 3 μl of ADP Glo™ reagent (Promega, V9101) and incubating 45 minutes at room temperature.
In general terms: In ADP-Glo the light output rises with the ADP produced.

In the next assay the target is T2, Hpk1 (Homo sapiens, UniProt Q92918).
T2 construct: expressed in transfected cells; host or cells: HEK293 cells engineered to express Hpk1 and SLP76
T2 sequence (Q92918 whole entry): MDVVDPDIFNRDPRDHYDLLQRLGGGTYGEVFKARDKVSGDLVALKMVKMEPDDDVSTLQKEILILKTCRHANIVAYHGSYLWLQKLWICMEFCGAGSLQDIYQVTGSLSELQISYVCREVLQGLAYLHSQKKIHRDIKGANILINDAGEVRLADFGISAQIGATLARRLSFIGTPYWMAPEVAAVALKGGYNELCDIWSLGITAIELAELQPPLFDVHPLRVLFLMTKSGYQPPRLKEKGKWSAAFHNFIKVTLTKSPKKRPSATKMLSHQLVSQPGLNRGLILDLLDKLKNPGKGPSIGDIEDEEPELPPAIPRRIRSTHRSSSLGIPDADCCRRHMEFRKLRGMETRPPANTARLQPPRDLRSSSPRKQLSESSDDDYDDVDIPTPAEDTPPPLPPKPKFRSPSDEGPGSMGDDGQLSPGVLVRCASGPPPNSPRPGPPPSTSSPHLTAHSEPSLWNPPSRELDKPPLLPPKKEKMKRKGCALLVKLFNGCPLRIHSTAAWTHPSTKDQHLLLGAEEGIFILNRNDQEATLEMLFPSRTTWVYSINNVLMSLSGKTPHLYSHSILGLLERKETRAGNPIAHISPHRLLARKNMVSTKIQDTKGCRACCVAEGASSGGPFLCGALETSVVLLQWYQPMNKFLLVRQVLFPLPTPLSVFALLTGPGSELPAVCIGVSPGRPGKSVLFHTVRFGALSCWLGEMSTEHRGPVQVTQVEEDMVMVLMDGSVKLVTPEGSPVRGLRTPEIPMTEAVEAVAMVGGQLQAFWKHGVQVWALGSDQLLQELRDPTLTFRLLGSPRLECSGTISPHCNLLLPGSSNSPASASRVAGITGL
The assay can be described thus: SLP76 phosphorylation assay (HEK293 cells expressing Hpk1 and SLP76). It is filed as cell-based. Particulars: SLP76 phosphorylation at S376, HEK293 cells expressing Hpk1 and SLP76, 4 hours incubation; for IC50: read-out: pSLP76 (HEK293) (pIC50) (converted). As for the experimental part:
Hpk1 inhibition in cells was determined by detection of SLP76 phosphorylation at S376 in lysates from HEK293 cells engineered to express Hpk1 and SLP76. Serial dilutions of test compounds were prepared in cell culture medium and 20 μl was transferred into each well of a 96-well plate containing HEK293 cells in 180 μl of culture medium. After incubation for 4 hours at 37° C./5% CO2, the culture medium was removed, plates were put on ice and cells washed with cold Minimal Essential Medium before lysing in 90 μl of cold Mammalian Protein Extraction Reagent (Thermo Scientific, 78501) for 30 minutes on ice. The cell lysates were transferred to another 96-well plate, centrifuged 10 minutes at 3000 rcf (4° C.) and 30 μl transferred to a 96-well High-bind plate (MSD, L15XB-3). After coating overnight at 4° C., the cell lysate was removed, wells were washed with base buffer (TBS, 0.2% Tween-20), and blocking solution (base buffer containing 3% MSD blocker A) was added to each well for 1 hour at room temperature. The blocking solution was removed, the wells were washed with base buffer, and detection antibody (SLP76 pS376) was added in 25 μl base buffer containing 1% MSD blocker A to each well. After a 2 h incubation at room temperature, the detection antibody was removed, wells were washed four times with base buffer, 25 μl SULFO-TAG labeled goat anti-rabbit secondary antibody (MSD, R32AB-1) in base buffer containing 1% MSD blocker A was added to each well and left for 1 hour at room temperature. Wells were washed 4 times with base buffer, 150 μl Read Buffer T was added to each well, and the plates were read in a Mesoscale plate reader (MSD). IC50 values were determined by curve-fitting the electrochemiluminescent signals obtained from the lysates of HEK293 cells expressing Hpk1 and SLP76 treated with test compounds at various concentrations minus the signal obtained from HEK293 cells expressing SLP76 only.

T1 sequence (Q92918 whole entry): as above

With `CC(C)[C@H](CO)CNC(=O)c1c[nH]c2ncc(-c3ccc(C4CCOCC4)c(CN(C)C)c3)cc12` (single isomer, unassigned) [Co. 31a], the IC50 on full-length human Hpk1 was 3.39 nM; on Hpk1, 257 nM.
In the case of `CC(C)[C@@H](CO)CNC(=O)c1c[nH]c2ncc(-c3ccc(C4CCOCC4)c(CN(C)C)c3)cc12` (single isomer, unassigned) [Co. 31b], the values for the IC50 on full-length human Hpk1 and at Hpk1 were 26.3 nM and 1320 nM, respectively.
Consider `Cc1c[nH]c2ncc(-c3ccc(C4CCOCC4)c([C@@H]4CCCN4)c3)cc12` [Co. 1], for which the figures for the IC50 at full-length human Hpk1 and at Hpk1 were 1.86 nM and 288 nM, respectively.
The matching figures for `Cc1cc2cc(-c3ccc(C4CCOCC4)c(C4CCCN4)c3)cnc2[nH]1` (stereo not shown) [Co. 2]: 145 nM and 6760 nM.
The matching figures for `N#Cc1c[nH]c2ncc(-c3ccc(C4CCOCC4)c(C4CCCN4)c3)cc12` (stereo not shown) [Co. 3]: 3.16 nM and 257 nM.
Taken in the same sequence, the figures for `N#CCc1c[nH]c2ncc(-c3ccc(C4CCOCC4)c([C@@H]4CCCN4)c3)cc12` [Co. 4] were 11.2 nM and 120 nM.
Regarding `c1cc2cc(-c3ccc(C4CCOCC4)c(C4CCCN4)c3)cnc2[nH]1` (stereo not shown) [Co. 6], the IC50 at full-length human Hpk1 is 30.2 nM; at Hpk1 it was 389 nM.
The matching figures for `Cc1c[nH]c2ncc(-c3ccc(C4CCOCC4)c([C@@H]4COCCN4)c3)cc12` [Co. 8]: 4.47 nM and 112 nM.
Taken in the same sequence, the figures for `CC(C)C(O)CNC(=O)c1c[nH]c2ncc(-c3ccc(C4CCOCC4)c(CN(C)C)c3)cc12` (stereo not shown) [Co. 11] were 21.9 nM and 3550 nM.
Taken in the same sequence, the figures for `CN(C)Cc1cc(-c2cnc3[nH]cc(C(=O)NCC(C)(C)O)c3c2)ccc1C1CCOCC1` [Co. 12] were 5.75 nM and 575 nM.
As for `CN(C)Cc1cc(-c2cnc3[nH]cc(C(=O)NCC(CO)C4CC4)c3c2)ccc1C1CCOCC1` (stereo not shown) [Co. 13], the IC50 at full-length human Hpk1 is 12 nM; at Hpk1, 759 nM.
Taken in the same sequence, the figures for `CN(C)Cc1cc(-c2cnc3[nH]cc(C(=O)NCC4(CO)CC4)c3c2)ccc1C1CCOCC1` [Co. 15] were 7.94 nM and 380 nM.
Taken in the same sequence, the figures for `CN(C)Cc1cc(-c2cnc3[nH]cc(C(=O)NCC4(CO)COC4)c3c2)ccc1C1CCOCC1` [Co. 16] were 53.7 nM and greater than 10000 nM.
`CN(C)Cc1cc(-c2cnc3[nH]cc(C(=O)NCC4(CO)CCCC4)c3c2)ccc1C1CCOCC1` [Co. 17]: the IC50 at full-length human Hpk1 was 3.8 nM; on Hpk1 it was 251 nM.
Consider `CN(C)Cc1cc(-c2cnc3[nH]cc(C(=O)N[C@@H]4CCC[C@@H]4O)c3c2)ccc1C1CCOCC1` [Co. 18], for which the IC50 at full-length human Hpk1 was 2.88 nM; on Hpk1, 263 nM.
For the compound `CN(C)Cc1cc(-c2cnc3[nH]cc(C(=O)NCc4ncco4)c3c2)ccc1C1CCOCC1` [Co. 19], the figures for the IC50 at full-length human Hpk1 and on Hpk1 were 10.2 nM and 1020 nM, respectively.
The matching figures for `CN(C)Cc1cc(-c2cnc3[nH]cc(C(=O)NCc4nccn4C)c3c2)ccc1C1CCOCC1` [Co. 20a]: 28.2 nM and 6920 nM.
In the case of `CN(C)Cc1cc(-c2cnc3[nH]cc(C(=O)N(C)C)c3c2)ccc1C1CCOCC1` [Co. 20b], the IC50 at full-length human Hpk1 is 93.3 nM; at Hpk1, 7240 nM.
Consider `Cc1nnc(CNC(=O)c2c[nH]c3ncc(-c4ccc(C5CCOCC5)c(CN(C)C)c4)cc23)o1` [Co. 21], for which the IC50 was 33.9 nM on full-length human Hpk1 and 9550 nM on Hpk1.
On to `Cc1nc(CNC(=O)c2c[nH]c3ncc(-c4ccc(C5CCOCC5)c(CN(C)C)c4)cc23)no1` [Co. 22], for which the results for the IC50 on full-length human Hpk1 and on Hpk1 were 58.9 nM and 6460 nM, respectively.
Taken in the same sequence, the figures for `CN(C)Cc1cc(-c2cnc3[nH]cc(C(=O)NCC4(O)CCCC4)c3c2)ccc1C1CCOCC1` [Co. 23] were 10.5 nM and 1580 nM.
Regarding `CN(C)Cc1cc(-c2cnc3[nH]cc(C(=O)NCc4nccs4)c3c2)ccc1C1CCOCC1` [Co. 24], the IC50 on full-length human Hpk1 was 4.47 nM; at Hpk1 it was 1550 nM.
As for `CN(C)Cc1cc(-c2cnc3[nH]cc(C(=O)NCC4CCC(=O)N4C)c3c2)ccc1C1CCOCC1` (stereo not shown) [Co. 26], the figures for the IC50 at full-length human Hpk1 and at Hpk1 were 38.9 nM and 4270 nM, respectively.
Take `CC(CO)CNC(=O)c1c[nH]c2ncc(-c3ccc(C4CCOCC4)c(CN(C)C)c3)cc12` (stereo not shown) [Co. 27]: the “Hpk1 biochemical (pIC50)” value at full-length human Hpk1 is 7.93. Also, on Hpk1, the “pSLP76 (HEK293) (pIC50)” value is listed as 5.94.
As for `CN(C)Cc1cc(-c2cnc3[nH]cc(C(=O)NCCNC(=O)C(F)F)c3c2)ccc1C1CCOCC1` [Co. 29], the IC50 on full-length human Hpk1 was 12.3 nM; at Hpk1 it was 1550 nM.
With `COCC(C)(O)CNC(=O)c1c[nH]c2ncc(-c3ccc(C4CCOCC4)c(CN(C)C)c3)cc12` (stereo not shown) [Co. 30], the IC50 at full-length human Hpk1 was 15.8 nM; on Hpk1, 2140 nM.
Taken in the same sequence, the figures for `CC(=O)N(C)CCNC(=O)c1c[nH]c2ncc(-c3ccc(C4CCOCC4)c(CN(C)C)c3)cc12` [Co. 32] were 66.1 nM and 1580 nM.
The matching figures for `CN(C)Cc1cc(-c2cnc3[nH]cc(C(=O)NS(=O)(=O)C4CC4)c3c2)ccc1C1CCOCC1` [Co. 33]: 9.12 nM and greater than 10000 nM.
The matching figures for `CC(C)C(CO)CNCc1c[nH]c2ncc(-c3ccc(C4CCOCC4)c(CN(C)C)c3)cc12` (stereo not shown) [Co. 34]: 324 nM and greater than 10000 nM.
On to `c1coc(CNCc2c[nH]c3ncc(-c4ccc(C5CCOCC5)c(C5CCCN5)c4)cc23)n1` (stereo not shown) [Co. 35], for which the IC50 on full-length human Hpk1 was 22.9 nM; at Hpk1, 3020 nM.
Turning to `CC(C)C(CO)CNC(c1c[nH]c2ncc(-c3ccc(C4CCOCC4)c(CN(C)C)c3)cc12)C(F)(F)F` (stereo not shown) [Co. 36], the IC50 on full-length human Hpk1 was 40.7 nM; at Hpk1, 2630 nM.
Taken in the same sequence, the figures for `CN(C)Cc1cc(-c2cnc3[nH]cc(C(NCc4ncco4)C(F)(F)F)c3c2)ccc1C1CCOCC1` (stereo not shown) [Co. 37] were 21.9 nM and 1660 nM.
